# Earlier results, collected in patent US20060099667A1, “Method for performing restrained dynamics docking of one or multiple substrates on multi-specific enzymes” (priority 2002, published 2006).
# Entries after “also recorded” stand apart in the source; their conditions may differ. Where a name gives a salt, the structure may show the parent alone.
# Assays:
# [1] = target: CYP3A7 (Homo sapiens, UniProt P24462)
# [2] = target: CYP3A5 (Homo sapiens, UniProt P20815)
# [3] = target: CYP3A4 (Homo sapiens, UniProt P08684)
# Chain of CYP3A4 (P08684 whole entry): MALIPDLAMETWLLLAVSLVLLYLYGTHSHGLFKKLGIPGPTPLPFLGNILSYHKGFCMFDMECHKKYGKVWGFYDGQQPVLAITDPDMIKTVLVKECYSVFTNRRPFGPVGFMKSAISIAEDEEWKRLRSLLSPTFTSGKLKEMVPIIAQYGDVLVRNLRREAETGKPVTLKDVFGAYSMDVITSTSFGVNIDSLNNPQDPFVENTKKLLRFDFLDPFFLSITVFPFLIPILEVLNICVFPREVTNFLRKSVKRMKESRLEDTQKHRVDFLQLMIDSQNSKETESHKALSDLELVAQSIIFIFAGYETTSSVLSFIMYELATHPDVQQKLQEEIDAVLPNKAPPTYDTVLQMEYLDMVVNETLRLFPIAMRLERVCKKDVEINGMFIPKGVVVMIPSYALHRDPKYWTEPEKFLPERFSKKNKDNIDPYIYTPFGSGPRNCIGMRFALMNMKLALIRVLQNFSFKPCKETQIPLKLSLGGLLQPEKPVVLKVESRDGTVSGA
# Chain of CYP3A7 (P24462 whole entry): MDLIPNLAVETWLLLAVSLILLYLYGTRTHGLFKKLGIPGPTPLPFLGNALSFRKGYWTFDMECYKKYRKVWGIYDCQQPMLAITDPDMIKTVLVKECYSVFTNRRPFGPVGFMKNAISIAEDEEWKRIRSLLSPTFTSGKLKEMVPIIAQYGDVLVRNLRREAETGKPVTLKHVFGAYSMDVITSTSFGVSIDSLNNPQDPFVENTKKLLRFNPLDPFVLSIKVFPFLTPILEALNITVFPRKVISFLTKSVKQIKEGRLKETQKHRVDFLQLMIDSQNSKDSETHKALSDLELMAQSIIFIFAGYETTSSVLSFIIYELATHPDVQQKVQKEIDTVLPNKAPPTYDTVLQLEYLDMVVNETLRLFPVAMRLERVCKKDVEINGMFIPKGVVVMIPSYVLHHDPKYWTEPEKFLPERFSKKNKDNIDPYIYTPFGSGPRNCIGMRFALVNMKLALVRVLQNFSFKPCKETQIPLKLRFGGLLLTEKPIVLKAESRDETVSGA
# Chain of CYP3A5 (P20815 whole entry): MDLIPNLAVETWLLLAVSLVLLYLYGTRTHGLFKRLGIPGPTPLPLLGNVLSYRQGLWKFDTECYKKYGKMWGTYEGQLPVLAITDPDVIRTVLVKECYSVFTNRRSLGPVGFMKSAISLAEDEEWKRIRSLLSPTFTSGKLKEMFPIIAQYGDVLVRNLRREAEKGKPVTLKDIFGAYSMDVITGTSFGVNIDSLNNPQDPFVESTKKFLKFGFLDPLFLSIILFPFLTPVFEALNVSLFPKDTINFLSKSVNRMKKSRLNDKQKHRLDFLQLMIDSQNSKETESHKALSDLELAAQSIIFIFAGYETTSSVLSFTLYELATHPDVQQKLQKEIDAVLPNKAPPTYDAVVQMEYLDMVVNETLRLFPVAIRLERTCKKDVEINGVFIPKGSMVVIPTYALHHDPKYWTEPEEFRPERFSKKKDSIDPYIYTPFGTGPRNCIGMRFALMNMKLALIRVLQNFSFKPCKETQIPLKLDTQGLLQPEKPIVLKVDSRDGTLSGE
Compound,position of oxidation [1],position of oxidation [2],position of oxidation [3]
C[C@]12CC[C@H](OS(=O)(=O)O)CC1=CC[C@@H]1[C@@H]2CC[C@]2(C)C(=O)CC[C@@H]12 [DHEA 3 sulfate conjugate],exclusively on the 16α position,,
C[C@]12CC[C@H]3[C@@H](CCC4=CC(=O)CC[C@@]43C)[C@@H]1CC[C@@H]2O [testosterone],both 6β and 16α position,almost exclusively in the 6β position,exclusively at the 6β position; also recorded: almost exclusively in the 6β position
